Reference: US20250268876A1, “TREATMENT OF HIDRADENITIS SUPPURATIVA WITH ORISMILAST” (UNION THERAPEUTICS A/S, priority 2021, published 2025)
Where “and” joins values, the source holds several entries; their conditions need not be identical. Equal values may be shown once. Read-outs that look alike come from different tables or passages of the source. Marks after values point to notes of the source that are not given here.

Tests used:
[1] = system: TNF-α secretion from human whole blood; assay: Whole blood TNF-α secretion assay (LPS or SEB); assay type: cell-based
[2] = system: Hidradenitis suppurativa (HS); conditions: two phase II studies, moderate HS; none of the patients in the placebo group; cited from earlier work
Emesis study in ferrets = conditions: ferret, in vivo, po
[3] = system: conscious, unrestrained ferret; conditions: in vivo, po, 1 mg/kg
TNF-α = assay: LPS-induced TNF-α in ferrets after single oral administration; conditions: oral 1 and 3 mg/kg; 1 hour after LPS (3 mg/kg ip)
[4] = Homo sapiens, 24 h, SEB 1 μg/mL, 24 hours, donor 1, read-out: Emax
[5] = Homo sapiens, 48 h, SEB 1 μg/mL, 48 hours, donor 1, read-out: Emax
[6] = Homo sapiens, 48 h, SEB 1 μg/mL, 48 hours, donor 2, read-out: Emax

O=C(Nc1c(Cl)c[n+]([O-])cc1Cl)c1ccc(OC(F)F)c(OCC2CC2)c1 [Roflumilast N-oxide]
Emax ([1]; LPS 1 μg/mL, 24 hours, donor 1, Emax defined as TNF-α level in un-stimulated wells): 72
EC50 ([1]; LPS 1 μg/mL, 24 hours, donor 1, read-out: EC50): 23.4 nM
Emax ([1]; LPS 1 μg/mL, 24 hours, donor 2): 79
EC50 ([1]; LPS 1 μg/mL, 24 hours, donor 2, read-out: EC50): 24 nM
Emax ([1]; LPS 1 μg/mL, 48 hours, donor 1): 75
EC50 ([1]; LPS 1 μg/mL, 48 hours, donor 1, read-out: EC50): 38.6 nM
Emax ([1]; LPS 1 μg/mL, 48 hours, donor 2): 78
EC50 ([1]; LPS 1 μg/mL, 48 hours, donor 2, read-out: EC50): 35 nM
Emax ([1]; SEB 1 μg/mL, 24 hours, donor 1): 97
EC50 ([1]; SEB 1 μg/mL, 24 hours, donor 1, read-out: EC50): 8.69 nM
Emax ([1]; SEB 1 μg/mL, 24 hours, donor 2): 66
EC50 ([1]; SEB 1 μg/mL, 24 hours, donor 2, read-out: EC50): 35.6 nM
Emax ([1]; SEB 1 μg/mL, 48 hours, donor 1): 97
EC50 ([1]; SEB 1 μg/mL, 48 hours, donor 1, read-out: EC50): 4.77 nM
Emax ([1]; SEB 1 μg/mL, 48 hours, donor 2): 80
EC50 ([1]; SEB 1 μg/mL, 48 hours, donor 2, read-out: EC50): 33.4 nM
Geometric mean of EC50 values across different assay parameters ([1]; mean of 8 determinations (LPS and SEB, 24 and 48 hours, 2 donors)): 8.80 ng/mL
EC50 ([1]; mean of 8 determinations (LPS and SEB, 24 and 48 hours, 2 donors), read-out: Geometric mean of EC50 values across different assay parameters): 21 nM

CCOc1cc([C@@H](CS(C)(=O)=O)N2C(=O)c3cccc(NC(C)=O)c3C2=O)ccc1OC [Apremilast]
treated patients with a positive HS clinical response (HiSCR) [2]: more than 50%
Emax ([1]; Homo sapiens, 24 h, LPS 1 μg/mL, 24 hours, donor 1, Emax defined as TNF-α level in un-stimulated wells, read-out: Emax): 74%
EC50 ([1]; Homo sapiens, 24 h, LPS 1 μg/mL, 24 hours, donor 1, read-out: EC50): 210 nM
EC50 ([1]; Homo sapiens, 24 h, LPS 1 μg/mL, 24 hours, donor 2, read-out: EC50): 283 nM
Emax ([1]; Homo sapiens, 24 h, LPS 1 μg/mL, 24 hours, donor 2, read-out: Emax): 79%
Emax [1, 4]: 98%
EC50 ([1]; Homo sapiens, 24 h, SEB 1 μg/mL, 24 hours, donor 2, read-out: EC50): 620 nM
Emax ([1]; Homo sapiens, 24 h, SEB 1 μg/mL, 24 hours, donor 2, read-out: Emax): 65%
EC50 ([1]; Homo sapiens, 48 h, LPS 1 μg/mL, 48 hours, donor 1, read-out: EC50): 277 nM
Emax ([1]; Homo sapiens, 48 h, LPS 1 μg/mL, 48 hours, donor 1, read-out: Emax): 77%
EC50 ([1]; Homo sapiens, 48 h, LPS 1 μg/mL, 48 hours, donor 2, read-out: EC50): 364 nM
Emax ([1]; Homo sapiens, 48 h, LPS 1 μg/mL, 48 hours, donor 2, read-out: Emax): 78%
EC50 ([1]; Homo sapiens, 48 h, SEB 1 μg/mL, 48 hours, donor 1, read-out: EC50): 155 nM
Emax [1, 5]: 97%
EC50 ([1]; Homo sapiens, 48 h, SEB 1 μg/mL, 48 hours, donor 2, read-out: EC50): 573 nM
Emax [1, 6]: 80%
EC50 ([1]; Homo sapiens, mean of 8 determinations (LPS and SEB, 24 and 48 hours, 2 donors), read-out: Geometric mean of EC50 values across different assay parameters): 287 nM and 0.132 µg/mL

O=C(Nc1c(Cl)cncc1Cl)c1ccc(OC(F)F)c(OCC2CC2)c1 [Roflumilast]
NOAEL at 3 h (Emesis study in ferrets): 1 mg/kg
Emetogenic properties [3]: absent
increase of TNF-α levels observed at 1 hour (TNF-α): attenuated in a dose-related manner

C[C@@H]1CCN(C(=O)CC#N)C[C@@H]1N(C)c1ncnc2[nH]ccc12 [Tofacitinib]
Emax [1, 4]: 98%
Emax [1, 5]: 95%
Emax [1, 6]: 102%
Effect on TNF-α secretion (in words) ([1]; LPS 1 μg/mL, 24 hours): Stimulation
Effect on TNF-α secretion (in words) ([1]; LPS 1 μg/mL, 48 hours): Stimulation
Emax ([1]; SEB 1 μg/mL, 24 hours, donor 2): 100*
